Species: Rattus norvegicus
Test: DrugMatrix - Regimen: Daily Repeat
Type: toxicity, organism-based, Sprague-Dawley
Parameters: regimen Daily Repeat, gender Male, age 6-8 weeks
Settings: in vivo, po, route oral GAVAGE, vehicle .5 % CMC; for ABSOLUTE BASOPHIL / ABSOLUTE EOSINOPHIL / ABSOLUTE LYMPHOCYTE / ABSOLUTE MONOCYTE / ABSOLUTE SEGMENTED NEUTROPHIL / BASOPHIL / EOSINOPHIL / ERYTHROCYTE COUNT / HEMATOCRIT / HEMOGLOBIN / LEUKOCYTE COUNT / LYMPHOCYTE / MEAN CORPUSCULAR HEMOGLOBIN / MEAN CORPUSCULAR HEMOGLOBIN CONCENTRATION / MEAN CORPUSCULAR VOLUME / MONOCYTE / NEUTROPHIL / NUCLEATED RED BLOOD CELLS / PLATELET COUNT: tissue Blood; for ALANINE AMINOTRANSFERASE / ALBUMIN / ALKALINE PHOSPHATASE / ASPARTATE AMINOTRANSFERASE / BLOOD UREA NITROGEN / CARBON DIOXIDE / CHLORIDE / CHOLESTEROL / CREATINE PHOSPHOKINASE / CREATININE / GLUCOSE / LACTATE DEHYDROGENASE / LIPASE / PHOSPHORUS / POTASSIUM / SODIUM / TOTAL BILIRUBIN / TOTAL PROTEIN / URIC ACID: tissue Plasma
[1] = 20 mg/kg, 72 h, dose level Low, time 3 day
[2] = 20 mg/kg, 120 h, dose level Low, time 5 day
[3] = 201 mg/kg, 72 h, dose level High, time 3 day
[4] = 201 mg/kg, 120 h, dose level High, time 5 day

## CCCCCCNC(=O)n1cc(F)c(=O)[nH]c1=O [CARMOFUR]
[1]
  ABSOLUTE BASOPHIL: 0 CELLS/uL
  ABSOLUTE EOSINOPHIL: 56 CELLS/uL
  ABSOLUTE LYMPHOCYTE: 15579 CELLS/uL
  ABSOLUTE MONOCYTE: 284.33 CELLS/uL
  ABSOLUTE SEGMENTED NEUTROPHIL: 1314 CELLS/uL
  BASOPHIL: 0%
  EOSINOPHIL: 0.33%
  ERYTHROCYTE COUNT: 5.63 x10E6/uL
  HEMATOCRIT: 35.8%
  HEMOGLOBIN: 14.23 G/DL
  LEUKOCYTE COUNT: 17.23 x10E3/uL
  LYMPHOCYTE: 90.33%
  MEAN CORPUSCULAR HEMOGLOBIN: 25.27 pg
  MEAN CORPUSCULAR HEMOGLOBIN CONCENTRATION: 39.8 G/DL
  MEAN CORPUSCULAR VOLUME: 63.6 fL
  MONOCYTE: 1.67%
  NEUTROPHIL: 7.67%
  NUCLEATED RED BLOOD CELLS: 0 /100WBC
  PLATELET COUNT: 1328 x10E3/uL
  ALANINE AMINOTRANSFERASE: 51 u/L
  ALBUMIN: 4.43 G/DL
  ALKALINE PHOSPHATASE: 409 u/L
  ASPARTATE AMINOTRANSFERASE: 85.67 u/L
  BLOOD UREA NITROGEN: 13 mg/dL
  CARBON DIOXIDE: 22.67 mmol/L
  CHLORIDE: 103.67 MEQ/L
  CHOLESTEROL: 70.67 mg/dL
  CREATINE PHOSPHOKINASE: 301.67 u/L
  CREATININE: 0.18 mg/dL
  GLUCOSE: 161 mg/dL
  LACTATE DEHYDROGENASE: 305.33 u/L
  LIPASE: 9 u/L
  PHOSPHORUS: 12.3 mg/dL
  POTASSIUM: 6.94 MEQ/L
  SODIUM: 146.4 MEQ/L
  TOTAL BILIRUBIN: 0.17 mg/dL
  TOTAL PROTEIN: 6.13 G/DL
  URIC ACID: 1.63 mg/dL
[2]
  ABSOLUTE BASOPHIL: 0 CELLS/uL
  ABSOLUTE EOSINOPHIL: 222.67 CELLS/uL
  ABSOLUTE LYMPHOCYTE: 15078.33 CELLS/uL
  ABSOLUTE MONOCYTE: 213.33 CELLS/uL
  ABSOLUTE SEGMENTED NEUTROPHIL: 719 CELLS/uL
  BASOPHIL: 0%
  EOSINOPHIL: 1.33%
  ERYTHROCYTE COUNT: 5.39 x10E6/uL
  HEMATOCRIT: 34.47%
  HEMOGLOBIN: 13.83 G/DL
  LEUKOCYTE COUNT: 16.23 x10E3/uL
  LYMPHOCYTE: 93%
  MEAN CORPUSCULAR HEMOGLOBIN: 25.67 pg
  MEAN CORPUSCULAR HEMOGLOBIN CONCENTRATION: 40.1 G/DL
  MEAN CORPUSCULAR VOLUME: 64 fL
  MONOCYTE: 1.33%
  NEUTROPHIL: 4.33%
  NUCLEATED RED BLOOD CELLS: 0 /100WBC
  PLATELET COUNT: 1330.33 x10E3/uL
  ALANINE AMINOTRANSFERASE: 47.67 u/L
  ALBUMIN: 4.3 G/DL
  ALKALINE PHOSPHATASE: 311 u/L
  ASPARTATE AMINOTRANSFERASE: 74.33 u/L
  BLOOD UREA NITROGEN: 14 mg/dL
  CARBON DIOXIDE: 23 mmol/L
  CHLORIDE: 103.33 MEQ/L
  CHOLESTEROL: 73.33 mg/dL
  CREATINE PHOSPHOKINASE: 245.33 u/L
  CREATININE: 0.12 mg/dL
  GLUCOSE: 149 mg/dL
  LACTATE DEHYDROGENASE: 124.33 u/L
  LIPASE: 8 u/L
  PHOSPHORUS: 12.67 mg/dL
  POTASSIUM: 6.45 MEQ/L
  SODIUM: 145.27 MEQ/L
  TOTAL BILIRUBIN: 0.23 mg/dL
  TOTAL PROTEIN: 6.07 G/DL
  URIC ACID: 1.57 mg/dL
[3]
  ABSOLUTE BASOPHIL: 0 CELLS/uL
  ABSOLUTE EOSINOPHIL: 0 CELLS/uL
  ABSOLUTE LYMPHOCYTE: 13152.33 CELLS/uL
  ABSOLUTE MONOCYTE: 146.67 CELLS/uL
  ABSOLUTE SEGMENTED NEUTROPHIL: 901 CELLS/uL
  BASOPHIL: 0%
  EOSINOPHIL: 0%
  ERYTHROCYTE COUNT: 5.67 x10E6/uL
  HEMATOCRIT: 35.7%
  HEMOGLOBIN: 14.47 G/DL
  LEUKOCYTE COUNT: 14.2 x10E3/uL
  LYMPHOCYTE: 92.67%
  MEAN CORPUSCULAR HEMOGLOBIN: 25.5 pg
  MEAN CORPUSCULAR HEMOGLOBIN CONCENTRATION: 40.53 G/DL
  MEAN CORPUSCULAR VOLUME: 62.97 fL
  MONOCYTE: 1%
  NEUTROPHIL: 6.33%
  NUCLEATED RED BLOOD CELLS: 0 /100WBC
  PLATELET COUNT: 1275.33 x10E3/uL
  ALANINE AMINOTRANSFERASE: 52.67 u/L
  ALBUMIN: 4.37 G/DL
  ALKALINE PHOSPHATASE: 367 u/L
  ASPARTATE AMINOTRANSFERASE: 69 u/L
  BLOOD UREA NITROGEN: 23.33 mg/dL
  CARBON DIOXIDE: 21 mmol/L
  CHLORIDE: 102.33 MEQ/L
  CHOLESTEROL: 81 mg/dL
  CREATINE PHOSPHOKINASE: 192.67 u/L
  CREATININE: 0.27 mg/dL
  GLUCOSE: 160 mg/dL
  LACTATE DEHYDROGENASE: 198.33 u/L
  LIPASE: 9.33 u/L
  PHOSPHORUS: 12 mg/dL
  POTASSIUM: 6.3 MEQ/L
  SODIUM: 145.27 MEQ/L
  TOTAL BILIRUBIN: 0.17 mg/dL
  TOTAL PROTEIN: 6.33 G/DL
  URIC ACID: 1.77 mg/dL
[4]
  ABSOLUTE BASOPHIL: 0 CELLS/uL
  ABSOLUTE EOSINOPHIL: 0 CELLS/uL
  ABSOLUTE LYMPHOCYTE: 4570 CELLS/uL
  ABSOLUTE MONOCYTE: 201.5 CELLS/uL
  ABSOLUTE SEGMENTED NEUTROPHIL: 2778.5 CELLS/uL
  BASOPHIL: 0%
  EOSINOPHIL: 0%
  ERYTHROCYTE COUNT: 8.62 x10E6/uL
  HEMATOCRIT: 52.2%
  HEMOGLOBIN: 20.65 G/DL
  LEUKOCYTE COUNT: 7.55 x10E3/uL
  LYMPHOCYTE: 62.5%
  MEAN CORPUSCULAR HEMOGLOBIN: 24 pg
  MEAN CORPUSCULAR HEMOGLOBIN CONCENTRATION: 39.6 G/DL
  MEAN CORPUSCULAR VOLUME: 60.55 fL
  MONOCYTE: 2.5%
  NEUTROPHIL: 35%
  NUCLEATED RED BLOOD CELLS: 0 /100WBC
  PLATELET COUNT: 1522.5 x10E3/uL
  ALANINE AMINOTRANSFERASE: 43.5 u/L
  ALBUMIN: 5.05 G/DL
  ALKALINE PHOSPHATASE: 216 u/L
  ASPARTATE AMINOTRANSFERASE: 414 u/L
  BLOOD UREA NITROGEN: 219.5 mg/dL
  CARBON DIOXIDE: 19 mmol/L
  CHLORIDE: 115 MEQ/L
  CHOLESTEROL: 78.5 mg/dL
  CREATINE PHOSPHOKINASE: 2230 u/L
  CREATININE: 0.29 mg/dL
  GLUCOSE: 164 mg/dL
  LACTATE DEHYDROGENASE: 1956 u/L
  LIPASE: 24.5 u/L
  PHOSPHORUS: 20.35 mg/dL
  POTASSIUM: 5.82 MEQ/L
  SODIUM: 154.1 MEQ/L
  TOTAL BILIRUBIN: 0.6 mg/dL
  TOTAL PROTEIN: 6.6 G/DL
  URIC ACID: 4.25 mg/dL

Source: ChEMBL document CHEMBL3885881, “DrugMatrix”
